Results published in ChEMBL document CHEMBL1149805, “Antibacterial activity of a novel series of 3-bromo-4-(1H-3-indolyl)-2,5-dihydro-1H-2,5-pyrroledione derivatives--an extended structure-activity relationship study” (Eur J Med Chem, 2008).
In brackets after ≈: the same amount, converted by molar mass. Activity calls are given as the source filed them. No rule for the calls is given here.

Test system: Staphylococcus aureus
Assay: Antibacterial activity against Staphylococcus aureus 134/93 after 24 hrs by broth microdilution method
Assay type: functional
Conditions: not given

| SMILES | -logMIC |
| --- | --- |
| O=C(CCCCc1[nH]c2ccccc2c1C1=C(Br)C(=O)NC1=O)Nc1ccccc1 | 5.8 |
| CCCCCc1cccc2c(C3=C(Br)C(=O)NC3=O)c(-c3ccccc3)[nH]c12 | 6.3 |
| O=C(CCCCCc1[nH]c2ccccc2c1C1=C(Br)C(=O)NC1=O)Nc1ccccc1 | 7 |
| CCCCOc1ccc(-c2[nH]c3ccccc3c2C2=C(Br)C(=O)NC2=O)cc1 | 6.3 |
| CCCc1ccc2[nH]c(-c3ccccc3)c(C3=C(Br)C(=O)NC3=O)c2c1 | 6.3 |
| CCOc1ccc2[nH]c(-c3ccccc3)c(C3=C(Br)C(=O)NC3=O)c2c1 | 5.4 |
| CCCCc1ccc2[nH]c(-c3ccc(OC)cc3)c(C3=C(Br)C(=O)NC3=O)c2c1 | 6.4 |
| CCc1ccc2[nH]c(-c3ccc(OC)cc3)c(C3=C(Br)C(=O)NC3=O)c2c1 | 6.6 |

Same assay, conditions: Staphylococcus aureus, 134/93, 24 h

| SMILES | MIC |
| --- | --- |
| O=C(CCCCc1[nH]c2ccccc2c1C1=C(Br)C(=O)NC1=O)Nc1ccccc1 | 1.7 µM (≈ 0.793 µg/mL) |
| CCCCCc1cccc2c(C3=C(Br)C(=O)NC3=O)c(-c3ccccc3)[nH]c12 | 0.5 µM (≈ 0.219 µg/mL) |
| CCCc1ccc2[nH]c(-c3ccccc3)c(C3=C(Br)C(=O)NC3=O)c2c1 | 0.5 µM (≈ 0.205 µg/mL) |
| CCOc1ccc2[nH]c(-c3ccccc3)c(C3=C(Br)C(=O)NC3=O)c2c1 | 3.8 µM (≈ 1.56 µg/mL) |

Stronger by MIC, values ahead:

| MIC | SMILES |
| --- | --- |
| 0.45 µM (≈ 0.198 µg/mL) | CCCCOc1ccc(-c2[nH]c3ccccc3c2C2=C(Br)C(=O)NC2=O)cc1 |
| 0.44 µM (≈ 0.199 µg/mL) | CCCCc1ccc2[nH]c(-c3ccc(OC)cc3)c(C3=C(Br)C(=O)NC3=O)c2c1 |
| 0.23 µM (≈ 0.0978 µg/mL) | CCc1ccc2[nH]c(-c3ccc(OC)cc3)c(C3=C(Br)C(=O)NC3=O)c2c1 |
| 0.1 µM (≈ 0.048 µg/mL) | O=C(CCCCCc1[nH]c2ccccc2c1C1=C(Br)C(=O)NC1=O)Nc1ccccc1 |

Test system: not listed separately
Assay: Partition coefficient, log P of the compound
Assay type: physicochemical
Conditions: octanol/water

| SMILES | logP |
| --- | --- |
| O=C(CCCCc1[nH]c2ccccc2c1C1=C(Br)C(=O)NC1=O)Nc1ccccc1 | 2.56 |
| CCCCCc1cccc2c(C3=C(Br)C(=O)NC3=O)c(-c3ccccc3)[nH]c12 | 4.11 |
| CCCc1ccc2[nH]c(-c3ccccc3)c(C3=C(Br)C(=O)NC3=O)c2c1 | 3.43 |
| CCOc1ccc2[nH]c(-c3ccccc3)c(C3=C(Br)C(=O)NC3=O)c2c1 | 2.77 |

The remaining lines, values ahead:

| logP | SMILES |
| --- | --- |
| 3.87 | CCCCOc1ccc(-c2[nH]c3ccccc3c2C2=C(Br)C(=O)NC2=O)cc1 |
| 3.83 | CCCCc1ccc2[nH]c(-c3ccc(OC)cc3)c(C3=C(Br)C(=O)NC3=O)c2c1 |
| 3.23 | CCc1ccc2[nH]c(-c3ccc(OC)cc3)c(C3=C(Br)C(=O)NC3=O)c2c1 |
| 2.68 | O=C(CCCCCc1[nH]c2ccccc2c1C1=C(Br)C(=O)NC1=O)Nc1ccccc1 |

Test system: Escherichia coli
Assay: Antibacterial activity against Escherichia coli after 24 hrs by broth microdilution method
Assay type: functional, organism-based
Conditions: not given

| SMILES | Activity |
| --- | --- |
| O=C(CCCCc1[nH]c2ccccc2c1C1=C(Br)C(=O)NC1=O)Nc1ccccc1 | inactive |
| CCCCCc1cccc2c(C3=C(Br)C(=O)NC3=O)c(-c3ccccc3)[nH]c12 | inactive |
| O=C(CCCCCc1[nH]c2ccccc2c1C1=C(Br)C(=O)NC1=O)Nc1ccccc1 | inactive |
| CCCCOc1ccc(-c2[nH]c3ccccc3c2C2=C(Br)C(=O)NC2=O)cc1 | inactive |
| CCCc1ccc2[nH]c(-c3ccccc3)c(C3=C(Br)C(=O)NC3=O)c2c1 | inactive |
| CCOc1ccc2[nH]c(-c3ccccc3)c(C3=C(Br)C(=O)NC3=O)c2c1 | inactive |
| CCCCc1ccc2[nH]c(-c3ccc(OC)cc3)c(C3=C(Br)C(=O)NC3=O)c2c1 | inactive |
| CCc1ccc2[nH]c(-c3ccc(OC)cc3)c(C3=C(Br)C(=O)NC3=O)c2c1 | inactive |

Test system: Mycolicibacterium smegmatis
Assay: Antibacterial activity against Mycobacterium smegmatis SG987 after 24 hrs by broth microdilution method
Assay type: functional
Conditions: not given

| SMILES | -logMIC |
| --- | --- |
| O=C(CCCCc1[nH]c2ccccc2c1C1=C(Br)C(=O)NC1=O)Nc1ccccc1 | 4.6 |
| CCCCCc1cccc2c(C3=C(Br)C(=O)NC3=O)c(-c3ccccc3)[nH]c12 | 4.9 |
| O=C(CCCCCc1[nH]c2ccccc2c1C1=C(Br)C(=O)NC1=O)Nc1ccccc1 | 4.6 |
| CCCCOc1ccc(-c2[nH]c3ccccc3c2C2=C(Br)C(=O)NC2=O)cc1 | 4.8 |
| CCCc1ccc2[nH]c(-c3ccccc3)c(C3=C(Br)C(=O)NC3=O)c2c1 | 5.4 |
| CCOc1ccc2[nH]c(-c3ccccc3)c(C3=C(Br)C(=O)NC3=O)c2c1 | 4.5 |
| CCCCc1ccc2[nH]c(-c3ccc(OC)cc3)c(C3=C(Br)C(=O)NC3=O)c2c1 | 5.5 |
| CCc1ccc2[nH]c(-c3ccc(OC)cc3)c(C3=C(Br)C(=O)NC3=O)c2c1 | 5.4 |

Same assay, conditions: Mycolicibacterium smegmatis, SG987, 24 h

| SMILES | MIC |
| --- | --- |
| O=C(CCCCc1[nH]c2ccccc2c1C1=C(Br)C(=O)NC1=O)Nc1ccccc1 | 26 µM (≈ 12.1 µg/mL) |
| CCCCCc1cccc2c(C3=C(Br)C(=O)NC3=O)c(-c3ccccc3)[nH]c12 | 14.3 µM (≈ 6.25 µg/mL) |
| CCCc1ccc2[nH]c(-c3ccccc3)c(C3=C(Br)C(=O)NC3=O)c2c1 | 3.8 µM (≈ 1.56 µg/mL) |
| CCOc1ccc2[nH]c(-c3ccccc3)c(C3=C(Br)C(=O)NC3=O)c2c1 | 30.4 µM (≈ 12.5 µg/mL) |

Continued, values first:

| MIC | SMILES |
| --- | --- |
| 15.8 µM (≈ 6.96 µg/mL) | CCCCOc1ccc(-c2[nH]c3ccccc3c2C2=C(Br)C(=O)NC2=O)cc1 |
| 3.4 µM (≈ 1.54 µg/mL) | CCCCc1ccc2[nH]c(-c3ccc(OC)cc3)c(C3=C(Br)C(=O)NC3=O)c2c1 |
| 3.67 µM (≈ 1.56 µg/mL) | CCc1ccc2[nH]c(-c3ccc(OC)cc3)c(C3=C(Br)C(=O)NC3=O)c2c1 |
| 26 µM (≈ 12.5 µg/mL) | O=C(CCCCCc1[nH]c2ccccc2c1C1=C(Br)C(=O)NC1=O)Nc1ccccc1 |

Test system: Candida albicans
Assay: Antibacterial activity against Candida albicans after 24 hrs by broth microdilution method
Assay type: functional, organism-based
Conditions: not given

| SMILES | Activity |
| --- | --- |
| O=C(CCCCc1[nH]c2ccccc2c1C1=C(Br)C(=O)NC1=O)Nc1ccccc1 | inactive |
| CCCCCc1cccc2c(C3=C(Br)C(=O)NC3=O)c(-c3ccccc3)[nH]c12 | inactive |
| O=C(CCCCCc1[nH]c2ccccc2c1C1=C(Br)C(=O)NC1=O)Nc1ccccc1 | inactive |
| CCCCOc1ccc(-c2[nH]c3ccccc3c2C2=C(Br)C(=O)NC2=O)cc1 | inactive |
| CCCc1ccc2[nH]c(-c3ccccc3)c(C3=C(Br)C(=O)NC3=O)c2c1 | inactive |
| CCOc1ccc2[nH]c(-c3ccccc3)c(C3=C(Br)C(=O)NC3=O)c2c1 | inactive |
| CCCCc1ccc2[nH]c(-c3ccc(OC)cc3)c(C3=C(Br)C(=O)NC3=O)c2c1 | inactive |
| CCc1ccc2[nH]c(-c3ccc(OC)cc3)c(C3=C(Br)C(=O)NC3=O)c2c1 | inactive |
